Results on two molecules are retold here after article PMC10786269 (Proceedings of the National Academy of Sciences of the …, 2024).

Counter-ions that a name gives are not always drawn.

For orientation: Kd means a measure of binding affinity in units of concentration. Read a low Kd as a tighter complex.

The target of assay [1] is T1, Polyphosphate kinase-1 (PPK-1, Rv2984) (Mycobacterium tuberculosis, UniProt P9WHV9).
T1 sequence (P9WHV9 1-742): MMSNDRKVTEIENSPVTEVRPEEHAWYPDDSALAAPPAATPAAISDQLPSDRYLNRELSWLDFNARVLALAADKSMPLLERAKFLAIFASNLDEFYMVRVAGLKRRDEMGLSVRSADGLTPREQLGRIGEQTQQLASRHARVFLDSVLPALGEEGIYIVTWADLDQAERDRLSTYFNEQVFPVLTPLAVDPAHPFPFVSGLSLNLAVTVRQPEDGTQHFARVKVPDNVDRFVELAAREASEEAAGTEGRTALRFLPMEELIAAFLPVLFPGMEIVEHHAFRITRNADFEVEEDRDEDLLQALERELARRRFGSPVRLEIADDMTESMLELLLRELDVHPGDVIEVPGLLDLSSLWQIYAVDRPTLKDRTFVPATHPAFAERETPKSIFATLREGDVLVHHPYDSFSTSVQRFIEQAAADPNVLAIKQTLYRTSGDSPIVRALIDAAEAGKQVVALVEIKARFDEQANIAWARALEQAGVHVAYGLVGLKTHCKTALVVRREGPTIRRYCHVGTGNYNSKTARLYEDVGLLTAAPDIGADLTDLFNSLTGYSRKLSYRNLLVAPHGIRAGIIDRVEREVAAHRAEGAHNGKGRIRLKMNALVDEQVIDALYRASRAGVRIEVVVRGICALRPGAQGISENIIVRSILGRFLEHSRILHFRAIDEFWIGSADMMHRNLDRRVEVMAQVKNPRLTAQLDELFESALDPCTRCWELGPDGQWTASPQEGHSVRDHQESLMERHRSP
As to the kind of experiment: microscale thermophoresis. The format is binding. On the technique in general: In MST a laser heats a spot of the sample, and binding alters the fluorescence response.

Assay [2] addresses T1, Polyphosphate kinase-1 (PPK-1, Rv2984). The format is biochemical.

The molecule `O=C(c1ccc(OCCN2CCCCC2)cc1)c1c(-c2ccc(O)cc2)sc2cc(O)ccc12` [Cpd-11, raloxifene hydrochloride] displayed a Kd in assay [1] of 40 µM.
For `O=C1OC2(c3ccccc31)c1ccc(O)c(O)c1Oc1c2ccc(O)c1O` [gallein], the “inhibition of PPK-1 ATP and polyP synthesis (SI Appendix Fig. S6 A-C)” value in assay [2] is “gallein inhibited both ATP and polyP synthesis activity associated with the PPK-1 homolog from M. tuberculosis”.
